Reference: US9233949B2, “Treatment for oxidative stress and/or hypertension” (Georgetown University, priority 2009, dated 2016)

Legend:
[1] = system: conscious salt-loaded spontaneously hypertensive rats; experiment: MAP in conscious salt-loaded SHR, daily oral gavage of drugs dissolved in DMSO; format: in vivo, rat; conditions: for Δ MAP Day 1 / Δ MAP Day 2 / Δ MAP Day 3: mean vehicle-adjusted fall, 2 mL of 10 mmol/L daily oral gavage, DMSO, n=3; for blood pressure effect, summary of Table 1: over three days, DMSO vehicle
Description: In another experiment, conscious salt-loaded spontaneously hypertensive rats received daily oral gavage with 2 mL of 10 mmol/L tempol, telmisartan, tempol/telmisartan ester-linked adduct (YK), tempamine/telmisartan amide-linked adduct (PLJ), and tempol+telmisartan. The drugs were dissolved in DMSO.

[2] = system: O2.^− generated by xanthine plus xanthine oxidase; experiment: Cell-free SOD mimetic / antioxidant assay, lucigenin-enhanced chemiluminescence; format: biochemical; conditions: drugs 10^−4 M, cell-free buffer with xanthine plus xanthine oxidase
Description: Low dose (10 μmol L^−1) lucigenin-enhanced chemiluminescence was used as previously described, to detect O2.^−, antioxidants or SOD mimetic properties. Vehicle or drugs (10^−4 M) were first added to cell-free buffer with O2.^− stimulated with xanthine (25 μmol/L) plus xanthine oxidase (9 IU/mL) to study the intrinsic antioxidant properties of the drugs used (34). Subsequent studies were performed in PGVSMCs from spontaneously hypertensive rats grown in 6-well plates. Cells (10^6 cells per well) were stimulated for 4 hours with Ang II (10^−6 M) to generate O2.^− in the presence of vehicle or drugs (19, 34, 45).

[3] = system: conscious spontaneously hypertensive rats; experiment: Telemetric mean arterial pressure in conscious SHR on high salt diet after gavage; format: in vivo, rat; conditions: for reduction of MAP: 80 μmol·kg^−1 once-daily gavage, high salt diet, maximal 16-24 hours after each gavage; for reduction of BP compared with tempol: after the first and the fourth gavage
Description: Spontaneously hypertensive rats (SHR) were anesthetized with 3% isoflurane for placement of telemetric blood pressure recorders as described (46). After 10 days, spontaneously hypertensive rats were anesthetized with halothane between 9 and 10 am and given a 2 mL gavage. Each rat was first given a training gavage with 2 mL of vehicle (0.9% w/v sodium chloride) and, two days later a second vehicle gavage as the control group. We detected no differences in the pattern of 4-hourly BP recording after the first or second vehicle gavage, compared to a day in which no gavage was given (data not shown). Blood pressure was recorded continuously. Data are presented as mean values over 4-hr periods for mean arterial pressure (MAP) and heart rate (HR). Two days after the second vehicle gavage, rats were again anesthetized with halothane and given a 2 mL gavage with one of the test drugs (10 mmol/L or 80 μmol·kg^−1). In random order rats received tempol, telmisartan, tempol plus telmisartan, or tempol/telmisartan ester-linked adduct (YK). Each rat received only one drug or drug combination. Two additional groups were tested similarly with candesartan and tempol+candesartan.
Preliminary studies were undertaken of antihypertensive responsiveness to gavage with 80 and 800 μmol kg^−1 of tempol. […] Therefore, the study was conducted in rats equilibrated to a high salt intake (Teklad Inc, 2826 Latham Drive, Madison, Wis. 53713) and given four daily doses of […] of drugs or vehicle.

[4] = system: Ang II-stimulated spontaneously hypertensive rat preglomerular vascular smooth muscle cells; experiment: O2.^− generation in Ang II-stimulated PGVSMCs, lucigenin-enhanced chemiluminescence; format: cell-based
Description: Preglomerular vascular smooth muscle cells (PGVSMCs) were isolated from 13- to 15-week-old male spontaneously hypertensive rats purchased from Taconic Farms (Germantown, N.Y.) as previously described (3, 9). Briefly, 1% Fe2O3 in DMEM was injected into isolated kidneys through the renal artery. The iron-loaded kidney was removed from the rat, the cortex was minced and washed in a 1% collagenase IV solution. Blood vessels were collected on a magnet and incubated with DMEM/F12 supplemented with 10% FCS and 20 U of penicillin-streptomycin. Experiments were conducted between passage 5 and 15. PGVSMCs were cultured in DMEM/F12 supplemented with 10% FBS, 100 U/mL penicillin, 100 μg/mL streptomycin and 200 μg/mL glutamine at 37° C. in 5% CO2-95% air at 98% humidity. […]
To determine the effects of drugs, cells were pretreated with graded concentrations (10^−12 to 10^−4 M) of tempol, telmisartan, tempol plus telmisartan, and tempol/telmisartan ester-linked adduct or vehicle (PBS) for 2 hours. […] Chemiluminescence was quantitated in a reader (AutoLumatPlus LB 953; EG&G, Berthold, Germany). The dynamic tracing was recorded for 180 seconds after the addition of lucigenin (10 μmol·L^−1) and NADPH (100 μmol·L^−1). […] The protein concentrations were measured with Bio-Rad kit (Hercules, Calif.). […]

[5] = molecular target: T1, AT2-R (Bos taurus, UniProt G5E6F7); experiment: Angiotensin II, Type 2 receptor radioligand binding displacement; design: species or system bovine; conditions: 10^−8 M drug concentration, n=2 (FIG. 3B)
T1 construct: from tissue; host or cells: bovine cerebellum membranes
T1 sequence (G5E6F7 1-362): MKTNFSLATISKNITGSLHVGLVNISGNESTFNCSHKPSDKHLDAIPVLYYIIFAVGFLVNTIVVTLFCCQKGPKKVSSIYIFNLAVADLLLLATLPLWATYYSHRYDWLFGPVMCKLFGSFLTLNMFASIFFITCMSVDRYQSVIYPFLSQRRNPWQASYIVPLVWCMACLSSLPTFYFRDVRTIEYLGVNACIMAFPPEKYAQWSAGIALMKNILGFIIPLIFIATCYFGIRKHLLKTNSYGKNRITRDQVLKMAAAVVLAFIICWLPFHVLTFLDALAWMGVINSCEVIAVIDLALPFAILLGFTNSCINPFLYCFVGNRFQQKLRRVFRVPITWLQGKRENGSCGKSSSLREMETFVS
Description: Angiogensin II, Type 2 Assay.
The assay was performed with a membrane preparation from bovine cerebellum. 200 μL of receptor suspension was re-suspended as 400 units in 80 mL and 100 units in 20 mL. The ligand [^125I]Tyr-4-Angiotensin II ([M] 1E-^10, Kd (binding affinity) 4E-^10, Bmax 2.11 fmol/mg) was used as a control. Radioactivity was counted in DPM. The assay buffer was 50 mM TRIS-HCl, containing 100 mM NaCl, 1 mM MgCl2, 0.1 mM Bacitracin, 0.1% BSA, (pH 7.2 at 25° C.) in an assay volume of 250 μL. Radioligand: 25 μL of Sar1, Tyr4-[^125I].

Row | Structure (SMILES) | Δ MAP Day 1 [1] [mmHg] | Δ MAP Day 2 [1] [mmHg] | Δ MAP Day 3 [1] [mmHg] | blood pressure effect, summary of Table 1 [1] | inhibition of lucigenin-enhanced chemiluminescence counts [2] | reduction of MAP [3] | reduction of BP compared with tempol [3] | inhibition of O2.^− generation, tempol versus telmisartan ([4]; at 10^−4 M) | fall in MAP, high salt (6 g·100 g^−1) compared to normal salt (0.3 g·100 g^−1) diet ([3]; pilot study, 16-24 hours after tempol 80 μmol kg^−1) | fall in MAP after 4 daily doses compared to the first dose ([3]; pilot study, high salt intake) | AT2-R binding displacement [5] | inhibition of O2.^− generation ([4]; 10^−12 to 10^−4 M, 10^−6 M Ang II for 4 hours, comparison at 10^−11, 10^−10 and 10^−6 M) | reduction of BP compared with single drugs ([3]; 12-24 hours after the first gavage) | additive effect on BP with repeated dosing ([3]; 16-24 hours after the fourth gavage) | reduction of MAP compared with candesartan or candesartan plus tempol ([3]; over 24 hours) | reduction of blood pressure compared with candesartan or candesartan plus tempol ([3]; over four days)
1 | CCCc1nc2c(C)cc(-c3nc4ccccc4n3C)cc2n1Cc1ccc(-c2ccccc2C(=O)NC2CC(C)(C)N([O])C(C)(C)C2)cc1 [PLJ] | −13 | −14 | −14 | reduce blood pressure of conscious SHR similar to telmisartan |  |  |  |  |  |  |  |  |  |  |  | 
2 | CCCc1nc2c(C)cc(-c3nc4ccccc4n3C)cc2n1Cc1ccc(-c2ccccc2C(=O)O)cc1 [Telmisartan, telmisartan] | −14 | −20 | −16 |  | ineffective | reduced the MAP | significantly more effective in reducing the BP than tempol |  |  |  |  |  |  |  |  | 
3 | CC1(C)CC(O)CC(C)(C)N1[O] [Tempol, tempol] | 0 | −4 | −2 | apparent absence of any consistent effect |  | reduced the MAP |  | significantly (p<0.05) more effective than telmisartan | twice as great | twice as great |  |  |  |  |  | 
4 | CCCc1nc2c(C)cc(-c3nc4ccccc4n3C)cc2n1Cc1ccc(-c2ccccc2C(=O)OC2CC(C)(C)N([O])C(C)(C)C2)cc1 [YK] | −13 | −14 | −14 | reduce blood pressure of conscious SHR similar to telmisartan |  | reduced the MAP |  |  |  |  | without effects on AT2-R binding | significantly more effective than tempol or telmisartan alone | more effective than either tempol or telmisartan | lost with repeated dosing | reduced MAP significantly more than candesartan or candesartan plus tempol | still reduced blood pressure more than candesartan or candesartan plus tempol
5 | CCOc1nc2cccc(C(=O)O)c2n1Cc1ccc(-c2ccccc2-c2nnn[nH]2)cc1 [candesartan] |  |  |  |  |  | reduced the MAP | significantly more effective in reducing the BP than tempol |  |  |  |  |  |  |  |  | 
